The values below come from ChEMBL document CHEMBL1153301, “Identification and SAR of novel diaminopyrimidines. Part 1: The discovery of RO-4, a dual P2X(3)/P2X(2/3) antagonist for the treatment of pain” (Bioorg Med Chem Lett, 2009).

What is called IC50 is the concentration needed to halve the response being measured. Usually Ki stands for the dissociation constant of the complex between target and ligand, obtained from inhibition or displacement. Lower therefore signals tighter binding. In general, pIC50 refers to the IC50 on a negative log10 scale, so that one unit is a factor of ten. In general, clearance refers to a measure of how efficiently the substance is removed, as volume per time. Low readings indicate a low capacity for elimination, high ones a high capacity for elimination.

SMILES strings stand for the structures. Where only a bound is given, the exact number is not on record here.

One series addresses T1, P2X purinoceptor 2 (Homo sapiens, UniProt Q9UBL9).
T1 sequence (Q9UBL9 whole entry): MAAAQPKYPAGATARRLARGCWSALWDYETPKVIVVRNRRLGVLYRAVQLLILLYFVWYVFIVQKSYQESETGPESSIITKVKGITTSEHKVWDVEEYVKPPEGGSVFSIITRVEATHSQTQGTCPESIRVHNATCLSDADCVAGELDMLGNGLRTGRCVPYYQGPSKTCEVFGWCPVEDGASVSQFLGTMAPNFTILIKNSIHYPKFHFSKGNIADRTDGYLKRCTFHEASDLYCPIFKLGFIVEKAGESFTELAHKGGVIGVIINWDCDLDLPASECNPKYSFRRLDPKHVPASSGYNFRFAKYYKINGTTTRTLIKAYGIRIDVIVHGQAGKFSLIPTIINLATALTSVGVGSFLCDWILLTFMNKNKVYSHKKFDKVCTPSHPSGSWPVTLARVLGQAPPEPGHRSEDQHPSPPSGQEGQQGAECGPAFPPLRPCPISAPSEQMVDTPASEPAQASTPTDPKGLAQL
Description: Inhibition of P2X2 receptor.

Another series addresses T2, P2X purinoceptor 4 (Homo sapiens, UniProt Q99571).
T2 sequence (Q99571 whole entry): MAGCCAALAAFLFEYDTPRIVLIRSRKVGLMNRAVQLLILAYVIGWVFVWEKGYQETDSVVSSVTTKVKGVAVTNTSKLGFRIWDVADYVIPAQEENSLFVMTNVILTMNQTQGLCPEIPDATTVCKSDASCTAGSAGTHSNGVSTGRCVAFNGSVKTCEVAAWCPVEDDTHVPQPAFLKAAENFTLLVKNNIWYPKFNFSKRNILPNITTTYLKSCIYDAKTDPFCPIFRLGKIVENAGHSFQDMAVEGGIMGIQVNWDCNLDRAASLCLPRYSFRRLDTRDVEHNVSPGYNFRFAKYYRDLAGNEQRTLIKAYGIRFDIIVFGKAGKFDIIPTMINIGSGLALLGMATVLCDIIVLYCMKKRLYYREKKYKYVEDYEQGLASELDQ
Description: Inhibition of P2X4 receptor.

The target in series [1] is 5-hydroxytryptamine receptor 6 (Homo sapiens, UniProt P50406). Kind of series: Inhibition of 5HT6 receptor.
Another series concerns the target T3, P2X purinoceptor 3 (Rattus norvegicus, UniProt P49654).
T3 sequence (P49654 whole entry): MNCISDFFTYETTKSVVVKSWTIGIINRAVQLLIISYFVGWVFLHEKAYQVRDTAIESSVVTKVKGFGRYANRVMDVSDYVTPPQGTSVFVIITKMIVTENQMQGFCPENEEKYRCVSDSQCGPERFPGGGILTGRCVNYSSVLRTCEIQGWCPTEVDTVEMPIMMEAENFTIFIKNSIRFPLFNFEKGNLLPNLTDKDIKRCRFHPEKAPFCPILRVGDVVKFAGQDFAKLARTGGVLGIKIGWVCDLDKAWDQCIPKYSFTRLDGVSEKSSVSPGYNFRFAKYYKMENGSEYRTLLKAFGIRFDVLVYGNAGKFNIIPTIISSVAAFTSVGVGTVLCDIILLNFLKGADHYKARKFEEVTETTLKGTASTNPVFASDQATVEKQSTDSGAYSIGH
Kind of series: Antagonist activity at rat recombinant P2X3 receptor expressed in CHO cells by FLIPR assay. To be noted: cho.

A further series deals with T4, P2X purinoceptor 1 (Homo sapiens, UniProt P51575).
T4 sequence (P51575 whole entry): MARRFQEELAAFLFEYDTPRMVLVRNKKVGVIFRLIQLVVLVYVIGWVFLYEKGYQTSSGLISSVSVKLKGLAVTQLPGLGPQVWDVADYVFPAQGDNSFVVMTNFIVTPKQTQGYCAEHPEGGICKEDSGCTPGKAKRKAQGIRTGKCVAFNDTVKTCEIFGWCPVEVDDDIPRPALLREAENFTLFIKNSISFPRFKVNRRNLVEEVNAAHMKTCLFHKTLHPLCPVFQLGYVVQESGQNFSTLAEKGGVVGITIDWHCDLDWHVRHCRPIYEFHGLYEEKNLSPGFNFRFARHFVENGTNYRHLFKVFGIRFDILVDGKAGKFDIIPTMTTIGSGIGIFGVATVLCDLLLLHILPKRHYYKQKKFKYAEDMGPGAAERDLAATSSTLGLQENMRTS
Description: Inhibition of P2X1 receptor.

A further series concerns the target Histamine H2 receptor (Homo sapiens, UniProt P25021). Kind of series: Inhibition of histamine H2 receptor.
For series [2], the target named is T5, P2X2/P2X3 heterotrimeric receptor (Homo sapiens, UniProt P56373+Q9UBL9).
T5 sequence (Q9UBL9 whole entry): T1 sequence (Q9UBL9 whole entry)
T5 sequence (P56373 whole entry): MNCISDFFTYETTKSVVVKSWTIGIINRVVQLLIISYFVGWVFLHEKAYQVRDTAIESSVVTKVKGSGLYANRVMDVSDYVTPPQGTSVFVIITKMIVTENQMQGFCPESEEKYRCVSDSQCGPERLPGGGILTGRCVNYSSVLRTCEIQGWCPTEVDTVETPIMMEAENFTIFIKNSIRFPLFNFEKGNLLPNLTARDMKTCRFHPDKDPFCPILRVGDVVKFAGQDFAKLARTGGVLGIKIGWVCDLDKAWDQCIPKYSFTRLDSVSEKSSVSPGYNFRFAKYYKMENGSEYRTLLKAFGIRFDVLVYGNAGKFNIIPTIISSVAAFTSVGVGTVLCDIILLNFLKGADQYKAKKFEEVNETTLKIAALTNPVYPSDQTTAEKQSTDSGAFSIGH
Description: Antagonist activity at human recombinant P2X2/3 receptor expressed in human 1321N1 cells by FLIPR assay. It counts as functional, cell-based.

The target of a further series is T6, P2X purinoceptor 7 (Homo sapiens, UniProt Q99572).
T6 sequence (Q99572 whole entry): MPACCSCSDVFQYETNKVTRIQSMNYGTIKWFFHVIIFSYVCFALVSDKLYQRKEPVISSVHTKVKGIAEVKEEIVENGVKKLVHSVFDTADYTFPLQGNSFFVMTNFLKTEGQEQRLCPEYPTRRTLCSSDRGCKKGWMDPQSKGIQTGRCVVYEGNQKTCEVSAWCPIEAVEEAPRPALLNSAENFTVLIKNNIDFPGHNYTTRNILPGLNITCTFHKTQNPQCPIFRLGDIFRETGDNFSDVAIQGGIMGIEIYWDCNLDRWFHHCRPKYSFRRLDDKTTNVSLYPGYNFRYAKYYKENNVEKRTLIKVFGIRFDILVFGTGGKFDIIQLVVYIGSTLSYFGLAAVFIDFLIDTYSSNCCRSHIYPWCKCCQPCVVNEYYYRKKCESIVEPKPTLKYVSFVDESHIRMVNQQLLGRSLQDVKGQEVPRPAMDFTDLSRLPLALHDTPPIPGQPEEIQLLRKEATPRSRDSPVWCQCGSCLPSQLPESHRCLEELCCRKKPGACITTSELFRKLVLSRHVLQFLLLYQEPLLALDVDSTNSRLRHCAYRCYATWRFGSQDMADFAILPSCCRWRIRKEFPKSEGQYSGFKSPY
Description: Inhibition of P2X7 receptor.

Series [3] is described as follows: Clearance in dog. The conditions noted are these: in vivo. The format is ADME, organism-based, Canis lupus familiaris.
For a further series, the system named is Caco-2. Description: Ratio of permeability from basolateral to apical side over apical to basolateral side in human Caco-2 cells. The format is ADME, cell-based. (In general: Caco-2 cells form a polarised layer with tight junctions and transporters.)
Another series concerns the target P2X purinoceptor 5 (Homo sapiens, UniProt Q93086). Kind of series: Inhibition of P2X5 receptor.
In series [4] the target is 5-hydroxytryptamine receptor 2A (Homo sapiens, UniProt P28223). Kind of series: Inhibition of 5HT2A receptor.
In series [5] the target is T7, 5-hydroxytryptamine receptor 3A (Homo sapiens, UniProt P46098).
T7 sequence (P46098 whole entry): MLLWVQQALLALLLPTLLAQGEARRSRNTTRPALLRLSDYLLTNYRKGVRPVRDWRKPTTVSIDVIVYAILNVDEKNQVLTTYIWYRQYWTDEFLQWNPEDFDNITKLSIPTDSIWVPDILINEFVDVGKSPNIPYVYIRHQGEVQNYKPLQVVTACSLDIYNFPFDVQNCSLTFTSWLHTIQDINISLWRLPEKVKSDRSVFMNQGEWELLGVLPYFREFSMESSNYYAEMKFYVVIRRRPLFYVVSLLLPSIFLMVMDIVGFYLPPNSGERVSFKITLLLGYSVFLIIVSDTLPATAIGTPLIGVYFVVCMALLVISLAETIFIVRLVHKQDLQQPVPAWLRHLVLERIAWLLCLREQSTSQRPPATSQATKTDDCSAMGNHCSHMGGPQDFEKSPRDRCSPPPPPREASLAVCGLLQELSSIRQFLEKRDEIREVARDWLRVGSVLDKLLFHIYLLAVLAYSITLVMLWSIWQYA
Kind of series: Inhibition of 5HT3 receptor.

Series [6] in a line: Inhibition of ML1 receptor.

Sequence of P2X purinoceptor 5 (Q93086 whole entry): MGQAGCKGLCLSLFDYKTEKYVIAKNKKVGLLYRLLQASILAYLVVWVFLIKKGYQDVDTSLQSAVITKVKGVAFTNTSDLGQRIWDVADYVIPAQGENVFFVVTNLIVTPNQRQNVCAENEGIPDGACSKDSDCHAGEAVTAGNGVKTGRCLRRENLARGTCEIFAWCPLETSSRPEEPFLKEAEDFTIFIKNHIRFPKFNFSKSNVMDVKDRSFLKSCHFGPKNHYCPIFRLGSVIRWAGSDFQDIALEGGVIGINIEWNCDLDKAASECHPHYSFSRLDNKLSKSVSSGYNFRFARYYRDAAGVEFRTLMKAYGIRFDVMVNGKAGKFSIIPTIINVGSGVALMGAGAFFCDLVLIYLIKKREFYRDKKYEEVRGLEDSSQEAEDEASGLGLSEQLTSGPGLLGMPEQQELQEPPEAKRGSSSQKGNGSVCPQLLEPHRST
Sequence of 5-hydroxytryptamine receptor 6 (P50406 whole entry): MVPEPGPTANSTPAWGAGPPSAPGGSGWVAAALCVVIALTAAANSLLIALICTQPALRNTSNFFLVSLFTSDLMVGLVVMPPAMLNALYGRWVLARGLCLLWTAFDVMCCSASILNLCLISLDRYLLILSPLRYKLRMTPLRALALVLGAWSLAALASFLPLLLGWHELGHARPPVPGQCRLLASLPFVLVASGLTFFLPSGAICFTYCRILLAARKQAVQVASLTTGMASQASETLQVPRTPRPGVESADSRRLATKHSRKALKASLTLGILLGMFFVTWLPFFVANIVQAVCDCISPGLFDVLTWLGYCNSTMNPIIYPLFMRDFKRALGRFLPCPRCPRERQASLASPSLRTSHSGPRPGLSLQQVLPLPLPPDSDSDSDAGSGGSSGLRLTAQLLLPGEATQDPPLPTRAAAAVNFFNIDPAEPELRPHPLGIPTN
Sequence of Histamine H2 receptor (P25021 whole entry): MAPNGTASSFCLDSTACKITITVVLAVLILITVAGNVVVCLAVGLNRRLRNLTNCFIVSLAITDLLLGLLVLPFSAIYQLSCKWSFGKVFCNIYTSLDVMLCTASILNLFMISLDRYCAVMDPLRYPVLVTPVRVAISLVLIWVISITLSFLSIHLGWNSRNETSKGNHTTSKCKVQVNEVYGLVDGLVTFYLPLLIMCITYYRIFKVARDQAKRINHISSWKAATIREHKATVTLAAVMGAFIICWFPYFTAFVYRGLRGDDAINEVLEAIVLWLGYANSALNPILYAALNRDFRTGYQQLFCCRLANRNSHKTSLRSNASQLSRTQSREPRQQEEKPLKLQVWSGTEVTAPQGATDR
Sequence of 5-hydroxytryptamine receptor 2A (P28223 whole entry): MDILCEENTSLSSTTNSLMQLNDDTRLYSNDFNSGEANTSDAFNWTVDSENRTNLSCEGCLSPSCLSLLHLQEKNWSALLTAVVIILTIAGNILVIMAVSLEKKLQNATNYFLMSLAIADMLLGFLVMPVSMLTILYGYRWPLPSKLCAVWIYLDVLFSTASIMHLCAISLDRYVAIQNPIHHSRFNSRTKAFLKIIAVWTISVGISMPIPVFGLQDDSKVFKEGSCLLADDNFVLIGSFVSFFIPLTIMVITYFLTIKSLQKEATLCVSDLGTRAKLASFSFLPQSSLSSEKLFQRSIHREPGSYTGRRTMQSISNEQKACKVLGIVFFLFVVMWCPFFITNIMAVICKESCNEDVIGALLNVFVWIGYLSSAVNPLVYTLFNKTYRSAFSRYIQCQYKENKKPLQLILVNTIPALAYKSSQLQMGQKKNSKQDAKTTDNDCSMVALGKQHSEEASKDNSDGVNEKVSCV

As to `COc1cc(C(C)C)c(Oc2cnc(N)nc2N)cc1I`, the IC50 at P2X purinoceptor 2 was above 10000 nM; against P2X purinoceptor 4, above 10000 nM; at P2X purinoceptor 1 it was above 10000 nM; in [2], 79.4 nM; against P2X purinoceptor 7, above 10000 nM; at P2X purinoceptor 5, above 10000 nM. Moreover, the Ki (in series [1]; on Histamine H2 receptor; in series [4]; in series [5]; in [6]) was 1000 nM in each case. Besides, the pIC50 at P2X purinoceptor 3 was 8. The same molecule had a clearance in series [3] of 13 mL/min/kg. Besides, the Ratio in the series on Caco-2 was determined as 1.
